Km and IC50 data for five compounds are collected here from publication PMC12540682, “Purification and biochemical characterization of L-glutaminase from Aspergillus oryzae with potential biotechnological applications in synthesis of L-theanine and as antitumor agent” (Scientific Reports, 2025).

Experiment [1] concerns T1, L-glutaminase (Glut) from Aspergillus oryzae EG-RE9.
T1 construct: gene gtaA; native extracellular enzyme purified from culture filtrate (ammonium sulfate, DEAE-cellulose, Sephadex G-200); 65 kDa by SDS-PAGE
Kind of experiment: ammonia release (Nessler), Lineweaver-Burk. Conditions: pH 7.0, 35 °C, 1 h; L-glutamine 0.25-12 mM. The class given is biochemical.

For experiment [2], the target named is T1, L-glutaminase (Glut) from Aspergillus oryzae EG-RE9. As to the kind of experiment: residual activity after preincubation, ammonia release (Nessler). The class given is biochemical. The following applies: 0.1 M phosphate pH 7.0, 20 min preincubation at 37 °C, covalent. As to the method: residual activity after preincubation, ammonia release (Nessler) on L-glutaminase (Glut) from Aspergillus oryzae EG-RE9 | The IC50 of BD, NBS, DEPC, and NEM for A. oryzae L-glutaminase were […]

With `NC(=O)CC[C@H](N)C(=O)O` [L-glutamine], the Km in experiment [1] worked out at 1.4 mM.

Turning to `O=C1CCC(=O)N1Br` [N-bromosuccinimide], the IC50 in experiment [2] (group-specific modifier of Trp) was determined as 5.7 mM.

Compound `CCN1C(=O)C=CC1=O` [N-ethylmaleimide] registered an IC50 in experiment [2] (group-specific modifier of Cys) of 4.8 mM.

As for `CC(=O)C(C)=O` [butanedione], the IC50 in experiment [2] (group-specific modifier of Arg) worked out at 6.6 mM.

As for `CCOC(=O)OC(=O)OCC` [diethyl pyrocarbonate], the concentration for half-maximal inhibition (IC50) in experiment [2] (group-specific modifier of His) amounted to 7 mM.
